# Assay results reported in US10844077B2, “Thiazolyl-containing compounds for treating proliferative diseases” (Dana-Farber Cancer Institute, Inc., priority 2014, dated 2020).
# “And” between values parts separate entries of the source, which are not always exact repeats. Identical values can stand only once. Like-named read-outs stand apart in the source and are kept apart here.
# Assays:
# Assay type in all cases: cell-based
# [1] = molecular target: kinases in BCWM.1 cells (Homo sapiens, UniProt Q99755); conditions: PIP5K1A; ATP; 1 μM, 90 min; GF
# Description: (§1) The cells were harvested and lysed. […] Bound kinases were identified and quantitated by ACTIVX as described in Patricelli et al., Biochemistry, 2007, 46(2): 350-358. The compounds were tested in duplicates against duplicate or quadruplicate control samples.
# [2] = molecular target: kinases in BCWM.1 cells (Homo sapiens, UniProt P49840); conditions: GSK3A; Lys2; 1 μM; GF
# Description: as §1
# [3] = molecular target: kinases in BCWM.1 cells (Homo sapiens, UniProt P23458); conditions: 1 μM, GF
# Description: as §1
# [4] = molecular target: kinases in BCWM.1 cells (Homo sapiens, UniProt Q15831); conditions: LKB1; Lys2; 1 μM; GF
# Description: as §1
# [5] = molecular target: kinases in BCWM.1 cells (Homo sapiens, UniProt P28482); conditions: Erk2; Lys2; 1 μM; GF
# Description: as §1
# [6] = molecular target: kinases in BCWM.1 cells (Homo sapiens, UniProt Q96GX5); conditions: MASTL, 1 μM, GF
# Description: as §1
# [7] = molecular target: kinases in BCWM.1 cells (Homo sapiens, UniProt Q86XP1); conditions: DGKH; ATP; 1 μM; GF
# Description: as §1
# [8] = molecular target: kinases in BCWM.1 cells (Homo sapiens, UniProt Q9NRM7); conditions: LATS2; Lys2; 1 μM; GF
# Description: as §1
# [9] = molecular target: kinases in BCWM.1 cells (Homo sapiens, UniProt P06493); conditions: CDC2; Protein Kinase Domain; 1 μM; GF
# Description: as §1
# [10] = molecular target: kinases in BCWM.1 cells (Homo sapiens, UniProt P24941); conditions: CDK2; Lys2; 1 μM; GF
# Description: as §1
# [11] = molecular target: kinases in BCWM.1 cells (Homo sapiens, UniProt Q16566); conditions: CaMK4; Lys2; 1 μM; GF
# Description: as §1
# [12] = molecular target: kinases in BCWM.1 cells (Homo sapiens, UniProt P51617); conditions: IRAK1; Lys2; 1 μM; GF
# Description: as §1
# [13] = molecular target: kinases in BCWM.1 cells (Homo sapiens, UniProt P78356); conditions: PIP4K2B; ATP; 1 μM, 90 min; GF
# Description: as §1
# [14] = molecular target: kinases in BCWM.1 cells (Homo sapiens, UniProt P51956); conditions: NEK3; Activation Loop; 1 μM, 90 min; GF
# Description: as §1
# [15] = molecular target: kinases in BCWM.1 cells (Homo sapiens, UniProt Q02156); conditions: PKCe; Lys2; 1 μM, 90 min; GF
# Description: as §1
# [16] = molecular target: kinases in BCWM.1 cells (Homo sapiens, UniProt Q00534); conditions: CDK6; Lys2; 1 μM; GF
# Description: as §1
# [17] = molecular target: kinases in BCWM.1 cells (Homo sapiens, UniProt Q8IU85); conditions: CaMKld; Lys1; 1 μM; GF
# Description: as §1
# [18] = molecular target: kinases in BCWM.1 cells (Homo sapiens, UniProt P27361); conditions: Erk1; Lys2; 1 μM; GF
# Description: as §1
# [19] = molecular target: kinases in BCWM.1 cells (Homo sapiens, UniProt Q96GD4); conditions: AurB; Lys1; 1 μM; GF
# Description: as §1
# [20] = molecular target: kinases in BCWM.1 cells (Homo sapiens, UniProt P41743); conditions: PKCi; Lys1; 1 μM, 90 min; GF
# Description: as §1
# [21] = molecular target: kinases in BCWM.1 cells (Homo sapiens, UniProt P29323); conditions: EphB2; Activation Loop; 1 μM; GF
# Description: as §1
# [22] = molecular target: kinases in BCWM.1 cells (Homo sapiens, UniProt P50750); conditions: CDK9; Lys2; 1 μM; GF
# Description: as §1
# [23] = molecular target: kinases in BCWM.1 cells (Homo sapiens, UniProt P80192); conditions: MLK1; Lys2; 1 μM; GF
# Description: as §1
# [24] = molecular target: kinases in BCWM.1 cells (Homo sapiens, UniProt Q96L34); conditions: MARK4; Lys2; 1 μM; GF
# Description: as §1
# [25] = molecular target: kinases in BCWM.1 cells (Homo sapiens, UniProt Q14680); conditions: MELK; Lys2; 1 μM; GF
# Description: as §1
# [26] = molecular target: kinases in BCWM.1 cells (Homo sapiens, UniProt Q00536)
# Description: as §1
# [27] = molecular target: kinases in BCWM.1 cells (Homo sapiens, UniProt O15111); conditions: IKKa; Lys2; 1 μM; GF
# Description: as §1
# [28] = molecular target: kinases in BCWM.1 cells (Homo sapiens, UniProt Q8IVH8); conditions: KHS2; Lys1; 1 μM; GF
# Description: as §1
# [29] = molecular target: kinases in BCWM.1 cells (Homo sapiens, UniProt P06241); conditions: FYN; Lys1; 1 μM; GF
# Description: as §1
# [30] = molecular target: kinases in BCWM.1 cells (Homo sapiens, UniProt P78368); conditions: CK1g2; Lys2; 1 μM; GF
# Description: as §1
# Chain of kinases in BCWM.1 cells (Homo sapiens, UniProt P49840) (P49840 2-483 limits assumed): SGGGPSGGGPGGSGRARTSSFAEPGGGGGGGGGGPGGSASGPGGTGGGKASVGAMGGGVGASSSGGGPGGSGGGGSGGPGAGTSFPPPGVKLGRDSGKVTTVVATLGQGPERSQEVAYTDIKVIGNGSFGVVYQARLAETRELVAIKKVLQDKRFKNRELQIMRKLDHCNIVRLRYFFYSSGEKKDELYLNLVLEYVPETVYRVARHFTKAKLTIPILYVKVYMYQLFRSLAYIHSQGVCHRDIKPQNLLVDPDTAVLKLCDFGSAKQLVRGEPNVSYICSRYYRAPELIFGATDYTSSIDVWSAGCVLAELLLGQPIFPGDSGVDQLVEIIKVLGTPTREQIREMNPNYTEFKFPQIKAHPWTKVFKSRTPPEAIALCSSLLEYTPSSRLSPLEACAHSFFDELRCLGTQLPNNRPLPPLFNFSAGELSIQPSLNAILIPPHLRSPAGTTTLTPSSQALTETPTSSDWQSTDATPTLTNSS
# Chain of kinases in BCWM.1 cells (Homo sapiens, UniProt P27361) (P27361 2-379 limits assumed): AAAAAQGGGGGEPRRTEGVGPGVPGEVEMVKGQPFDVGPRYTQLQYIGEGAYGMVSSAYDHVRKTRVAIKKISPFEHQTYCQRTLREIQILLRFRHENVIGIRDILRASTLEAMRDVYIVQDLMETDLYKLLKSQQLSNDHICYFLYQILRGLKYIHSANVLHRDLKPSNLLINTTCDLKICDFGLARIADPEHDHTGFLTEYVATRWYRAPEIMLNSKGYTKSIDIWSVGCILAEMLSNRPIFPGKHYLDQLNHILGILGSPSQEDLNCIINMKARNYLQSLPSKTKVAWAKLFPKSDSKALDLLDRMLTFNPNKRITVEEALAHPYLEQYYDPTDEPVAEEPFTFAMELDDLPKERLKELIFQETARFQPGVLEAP
# Chain of kinases in BCWM.1 cells (Homo sapiens, UniProt P29323) (P29323 19-1055 limits assumed): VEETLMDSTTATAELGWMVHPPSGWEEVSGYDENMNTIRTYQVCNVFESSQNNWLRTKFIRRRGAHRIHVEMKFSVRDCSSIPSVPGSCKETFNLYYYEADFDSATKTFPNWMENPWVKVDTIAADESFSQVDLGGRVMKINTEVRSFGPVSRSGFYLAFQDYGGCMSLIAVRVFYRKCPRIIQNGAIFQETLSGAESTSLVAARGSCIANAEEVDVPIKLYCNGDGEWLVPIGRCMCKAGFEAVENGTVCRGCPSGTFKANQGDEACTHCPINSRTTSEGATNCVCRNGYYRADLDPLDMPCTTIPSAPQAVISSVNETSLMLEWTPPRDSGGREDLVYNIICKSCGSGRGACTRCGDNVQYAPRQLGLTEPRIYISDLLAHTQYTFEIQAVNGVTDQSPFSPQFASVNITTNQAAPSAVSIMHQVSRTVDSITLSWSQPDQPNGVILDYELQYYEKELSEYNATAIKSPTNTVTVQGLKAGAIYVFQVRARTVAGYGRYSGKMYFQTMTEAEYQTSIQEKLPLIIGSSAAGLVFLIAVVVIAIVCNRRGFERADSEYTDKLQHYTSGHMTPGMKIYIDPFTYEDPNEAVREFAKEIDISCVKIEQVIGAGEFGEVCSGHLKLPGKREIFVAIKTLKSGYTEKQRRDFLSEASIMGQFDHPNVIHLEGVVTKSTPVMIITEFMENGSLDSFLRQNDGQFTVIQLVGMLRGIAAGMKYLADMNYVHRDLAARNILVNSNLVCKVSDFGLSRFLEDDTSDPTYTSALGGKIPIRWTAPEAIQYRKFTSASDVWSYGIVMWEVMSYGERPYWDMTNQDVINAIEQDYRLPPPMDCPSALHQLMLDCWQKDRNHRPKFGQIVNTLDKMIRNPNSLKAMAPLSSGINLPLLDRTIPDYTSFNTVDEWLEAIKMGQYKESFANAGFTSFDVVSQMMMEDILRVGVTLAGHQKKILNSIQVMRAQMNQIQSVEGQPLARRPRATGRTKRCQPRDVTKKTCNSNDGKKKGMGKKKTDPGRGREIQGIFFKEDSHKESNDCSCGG
# Chain of kinases in BCWM.1 cells (Homo sapiens, UniProt P28482) (P28482 2-360 limits assumed): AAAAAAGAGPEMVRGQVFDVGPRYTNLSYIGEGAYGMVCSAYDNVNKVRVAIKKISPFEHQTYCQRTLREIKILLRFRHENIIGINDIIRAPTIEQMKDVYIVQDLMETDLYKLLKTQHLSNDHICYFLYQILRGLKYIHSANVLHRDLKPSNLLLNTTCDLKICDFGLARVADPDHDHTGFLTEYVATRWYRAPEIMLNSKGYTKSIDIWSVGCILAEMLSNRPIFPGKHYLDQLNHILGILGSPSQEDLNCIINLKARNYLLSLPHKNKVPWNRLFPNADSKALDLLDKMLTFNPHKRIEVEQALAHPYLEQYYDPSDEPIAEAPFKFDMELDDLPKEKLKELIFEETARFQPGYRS
# Chain of kinases in BCWM.1 cells (Homo sapiens, UniProt P78356) (P78356 2-416 limits assumed): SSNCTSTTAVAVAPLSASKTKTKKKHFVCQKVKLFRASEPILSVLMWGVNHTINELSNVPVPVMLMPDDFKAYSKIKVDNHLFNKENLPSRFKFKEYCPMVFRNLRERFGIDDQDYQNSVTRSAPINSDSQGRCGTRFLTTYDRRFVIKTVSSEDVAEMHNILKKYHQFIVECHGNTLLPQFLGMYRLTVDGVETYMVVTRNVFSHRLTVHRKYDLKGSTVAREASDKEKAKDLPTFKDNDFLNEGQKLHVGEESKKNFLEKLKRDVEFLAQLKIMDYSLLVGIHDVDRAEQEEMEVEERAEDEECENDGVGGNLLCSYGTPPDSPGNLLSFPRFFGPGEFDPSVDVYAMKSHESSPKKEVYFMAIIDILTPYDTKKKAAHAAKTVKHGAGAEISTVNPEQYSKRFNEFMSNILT
# Chain of kinases in BCWM.1 cells (Homo sapiens, UniProt P06241) (P06241 2-537 limits assumed): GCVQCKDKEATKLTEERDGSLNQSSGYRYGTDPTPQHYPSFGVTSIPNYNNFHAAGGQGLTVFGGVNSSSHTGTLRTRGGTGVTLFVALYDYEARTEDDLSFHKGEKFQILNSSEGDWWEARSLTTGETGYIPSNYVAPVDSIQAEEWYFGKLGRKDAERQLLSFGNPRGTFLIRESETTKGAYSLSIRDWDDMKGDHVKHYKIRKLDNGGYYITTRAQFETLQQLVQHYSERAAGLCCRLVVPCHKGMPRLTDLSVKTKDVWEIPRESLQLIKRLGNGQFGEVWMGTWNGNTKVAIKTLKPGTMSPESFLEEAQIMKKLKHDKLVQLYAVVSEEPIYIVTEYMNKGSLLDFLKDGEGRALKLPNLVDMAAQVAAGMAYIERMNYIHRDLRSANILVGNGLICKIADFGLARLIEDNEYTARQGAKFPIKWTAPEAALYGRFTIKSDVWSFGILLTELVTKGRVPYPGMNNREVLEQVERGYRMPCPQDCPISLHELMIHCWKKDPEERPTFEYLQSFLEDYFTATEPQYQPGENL
# Chain of kinases in BCWM.1 cells (Homo sapiens, UniProt P41743) (P41743 2-596 limits assumed): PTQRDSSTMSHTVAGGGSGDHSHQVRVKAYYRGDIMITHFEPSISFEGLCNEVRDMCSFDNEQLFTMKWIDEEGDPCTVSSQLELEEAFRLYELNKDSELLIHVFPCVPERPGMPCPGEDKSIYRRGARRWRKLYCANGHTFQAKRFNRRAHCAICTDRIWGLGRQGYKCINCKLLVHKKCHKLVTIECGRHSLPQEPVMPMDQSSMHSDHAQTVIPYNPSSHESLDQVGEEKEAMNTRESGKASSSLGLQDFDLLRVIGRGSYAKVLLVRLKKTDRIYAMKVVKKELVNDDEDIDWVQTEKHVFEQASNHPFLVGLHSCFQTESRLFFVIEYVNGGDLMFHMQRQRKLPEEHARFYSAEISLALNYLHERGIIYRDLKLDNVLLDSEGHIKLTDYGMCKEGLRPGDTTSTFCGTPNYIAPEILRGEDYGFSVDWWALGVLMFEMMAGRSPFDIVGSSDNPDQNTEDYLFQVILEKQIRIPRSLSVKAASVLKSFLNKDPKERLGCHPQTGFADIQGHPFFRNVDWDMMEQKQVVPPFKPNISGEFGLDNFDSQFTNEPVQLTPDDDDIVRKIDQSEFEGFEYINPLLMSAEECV
smiles,measurement,setting,value
C=CC(=O)N1CC[C@H](Nc2nccc(Nc3ncc(C(=O)Nc4c(C)cccc4C)s3)n2)C1 [Example I-3],% change of MS signal compared to control sample,[1],30.5%
CCC(=O)N1CC[C@H](Nc2nccc(Nc3ncc(C(=O)Nc4c(C)cccc4C)s3)n2)C1 [Example I-9],% change of MS signal compared to control sample,[2],2.3% and 1.9%
same,% change of MS signal compared to control sample,"[3]; JAK1, Protein Kinase Domain",−11.5% and −6.7%
same,% change of MS signal compared to control sample,"[3]; JAK1 domain2, Activation Loop",−15.6% and −13.9%
same,% change of MS signal compared to control sample,"[3]; JAK1 domain2, Lys1",−18.1% and −14.4%
same,% change of MS signal compared to control sample,[4],−11.2% and −7.4%
same,% change of MS signal compared to control sample,[5],−3.8% and 4%
same,% change of MS signal compared to control sample,[6]; ATP Loop,0.4% and 1.8%
same,% change of MS signal compared to control sample,[6]; Lys1,2.4% and 8%
same,% change of MS signal compared to control sample,[7],−21.2% and −12.5%
same,% change of MS signal compared to control sample,[8],−12.3% and −5.1%
same,% change of MS signal compared to control sample,[9],−2.6% and −3.2%
same,% change of MS signal compared to control sample,[10],−8.7% and −4.3%
same,% change of MS signal compared to control sample,[11],−10.3% and −13.1%
same,% change of MS signal compared to control sample,[12],−2.6% and −3.2%
same,% change of MS signal compared to control sample,[13],−19%
same,% change of MS signal compared to control sample,[14],−3.2%
same,% change of MS signal compared to control sample,[15],−7%
same,% change of MS signal compared to control sample,[16],2.7% and 3.5%
same,% change of MS signal compared to control sample,[17],−7.5% and −4.6%
same,% change of MS signal compared to control sample,[18],−3.1% and 3.1%
same,% change of MS signal compared to control sample,[19],−20.6% and −21.5%
same,% change of MS signal compared to control sample,[20],18.6%
same,% change of MS signal compared to control sample,[21],81.7% and 85.6%
same,% change of MS signal compared to control sample,[22],32.7% and 23.1%
same,% change of MS signal compared to control sample,[23],1% and 9%
same,% change of MS signal compared to control sample,[24],−12.2% and −10.2%
same,% change of MS signal compared to control sample,[25],−9.6% and −9.5%
same,% change of MS signal compared to control sample,[26],6.5%
same,% change of MS signal compared to control sample,[27],−3.3% and −0.4%
same,% change of MS signal compared to control sample,[28],−23.6% and −22.7%
same,% change of MS signal compared to control sample,[29],>91%
same,% change of MS signal compared to control sample,[30],−8.9% and −10.9%
